Test results reported in the supplement of paper PMC10883282.
± gives the standard deviation of the averaged measurements.

System: A204
Experiment: relative viability vs DMSO control (72 h) (fraction); higher = more viable cells
Outline: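 Sarcoma cell lines were seeded in 384-well plates at densities chosen for 80–90% confluence, then 24 h later given 2.5 µl of serially diluted compound drawn from source plates spanning 10 mM to 0.0002 mM. They were held 72 h at 37 °C, 5% CO2, with 0.1% DMSO vehicle and a 5 µM positive control included. Relative viability was read with ATPLite as percent growth and averaged over up to triplicate wells. Rescaling placed full at 1 and none at 0.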

Compound	relative viability (0.00017 µM)	relative viability (0.00051 µM)	relative viability (0.00152 µM)	relative viability (0.00457 µM)	relative viability (0.01372 µM)	relative viability (0.04115 µM)	relative viability (0.1235 µM)	relative viability (0.3704 µM)	relative viability (1.111 µM)	relative viability (3.333 µM)	relative viability (10 µM)
C=CC(=O)N1CCC[C@@H](n2nc(-c3ccc(Oc4ccccc4)cc3)c3c(N)ncnc32)C1 [Ibrutinib]	1.03 ± 0.019	1.06 ± 0.11	1.04 ± 0.057	1.07 ± 0.059	1.05 ± 0.048	1.09 ± 0.034	1.07 ± 0.095	1.07 ± 0.026	1.008 ± 0.0098	0.939 ± 0.13	0.525 ± 0.026
CC[C@H](Nc1ncnc2[nH]cnc12)c1nc2cccc(F)c2c(=O)n1-c1ccccc1 [Idelalisib]	1.08 ± 0.023	1.1 ± 0.043	1.1 ± 0.032	1.1 ± 0.046	1.07 ± 0.081	1.06 ± 0.041	1.03 ± 0.023	1.02 ± 0.021	0.973 ± 0.067	0.835 ± 0.015	0.61 ± 0.033
O=C(Cc1ccc(-c2ccc(OCCN3CCOCC3)cc2)cn1)NCc1ccccc1 [KX2-391]	1.09 ± 0.031	1.07 ± 0.042	1.11 ± 0.04	1.05 ± 0.033	1.04 ± 0.084	0.894 ± 0.072	0.458 ± 0.064	0.36 ± 0.032	0.341 ± 0.014	0.31 ± 0.02	0.266 ± 0.0096
O=C(Nc1cnn2ccc(N3CCC[C@@H]3c3cc(F)ccc3F)nc12)N1CC[C@H](O)C1 [Larotrectinib]	1.11 ± 0.015	1.1 ± 0.029	1.11 ± 0.037	1.06 ± 0.043	1.11 ± 0.039	1.08 ± 0.02	1.09 ± 0.046	1.11 ± 0.04	1.06 ± 0.057	1.115 ± 0.011	1.09 ± 0.016
Cc1ccc(F)c(NC(=O)Nc2ccc(-c3cccc4[nH]nc(N)c34)cc2)c1 [Linifanib]	1.07 ± 0.037	1.11 ± 0.047	1.08 ± 0.037	1.073 ± 0.0063	1.06 ± 0.02	0.973 ± 0.13	0.659 ± 0.03	0.469 ± 0.066	0.435 ± 0.034	0.414 ± 0.032	0.439 ± 0.01
C[C@]1(O)C[C@@H](c2nc(-c3ccc4ccc(-c5ccccc5)nc4c3)c3c(N)nccn32)C1 [Linsitinib]	1.08 ± 0.049	1.05 ± 0.058	1.05 ± 0.021	1.06 ± 0.05	1.03 ± 0.017	1.03 ± 0.048	1.04 ± 0.087	0.99 ± 0.077	0.907 ± 0.063	0.755 ± 0.097	0.476 ± 0.017
Cc1ccc(NC(=O)c2ccc(CN3CCN(C)CC3)cc2)cc1Nc1nc(-c2cccnc2)cs1 [Masitinib]	1.01 ± 0.019	1.03 ± 0.039	1.06 ± 0.013	1.05 ± 0.065	1.09 ± 0.03	0.976 ± 0.033	0.772 ± 0.012	0.472 ± 0.011	0.303 ± 0.015	0.194 ± 0.015	0.0391 ± 0.0062
CC1(C)CNc2cc(NC(=O)c3cccnc3NCc3ccncc3)ccc21 [Motesanib]	0.977 ± 0.038	1.01 ± 0.046	1.01 ± 0.037	0.995 ± 0.015	0.968 ± 0.025	0.895 ± 0.045	0.76 ± 0.059	0.524 ± 0.017	0.393 ± 0.0075	0.3783 ± 0.0025	0.312 ± 0.012
CC(C)N1CCN(Cc2cnc(-c3cc(-c4cccc5[nH]ccc45)cc4[nH]ncc34)o2)CC1 [Nemiralisib]	0.981 ± 0.046	0.988 ± 0.022	0.998 ± 0.039	0.982 ± 0.015	0.97 ± 0.058	0.97 ± 0.017	0.956 ± 0.0079	0.897 ± 0.03	0.847 ± 0.053	0.631 ± 0.035	0.359 ± 0.021
C=CC(=O)Nc1cccc(Oc2nc(Nc3ccc(N4CCN(C)CC4)cc3)nc3ccsc23)c1 [Olmutinib]	1.09 ± 0.028	1.05 ± 0.038	1.06 ± 0.019	1.06 ± 0.039	1.05 ± 0.031	1.05 ± 0.02	1.01 ± 0.03	1.03 ± 0.022	0.929 ± 0.054	0.568 ± 0.064	0.177 ± 0.031
CC(C)(C)c1cc(NC(=O)Nc2ccc(-c3cn4c(n3)sc3cc(OCCN5CCOCC5)ccc34)cc2)no1 [Quizartinib]	1.05 ± 0.035	1.08 ± 0.02	1.06 ± 0.032	1.08 ± 0.023	1.067 ± 0.0075	0.946 ± 0.039	0.752 ± 0.052	0.472 ± 0.011	0.42 ± 0.02	0.369 ± 0.032	0.396 ± 0.021
CNC(=O)c1cc(Oc2ccc(NC(=O)Nc3ccc(Cl)c(C(F)(F)F)c3)c(F)c2)ccn1 [Regorafenib]	1.06 ± 0.046	1.07 ± 0.05	1.05 ± 0.067	1.08 ± 0.051	1.079 ± 0.0072	1.05 ± 0.032	0.987 ± 0.06	0.589 ± 0.033	0.434 ± 0.0088	0.305 ± 0.033	0.219 ± 0.0053
CO[C@H]1C[C@@H]2CC[C@@H](C)[C@@](O)(O2)C(=O)C(=O)N2CCCC[C@H]2C(=O)O[C@H]([C@H](C)C[C@@H]2CC[C@@H](OP(C)(C)=O)[C@H](OC)C2)CC(=O)[C@H](C)/C=C(\C)[C@@H](O)[C@@H](OC)C(=O)[C@H](C)C[C@H](C)/C=C/C=C/C=C/1C [Ridaforolimus]	0.996 ± 0.029	0.915 ± 0.019	0.783 ± 0.025	0.677 ± 0.047	0.601 ± 0.07	0.582 ± 0.036	0.576 ± 0.02	0.512 ± 0.042	0.532 ± 0.023	0.513 ± 0.043	0.499 ± 0.0088
COCc1c(-c2cc3cc(C)cc(OC)c3s2)c2c(N)ncnn2c1CN1CCNC(=O)C1 [Rogaratinib]	1.09 ± 0.039	1.07 ± 0.069	1.09 ± 0.036	1.08 ± 0.019	1.05 ± 0.039	0.95 ± 0.058	0.827 ± 0.048	0.631 ± 0.043	0.548 ± 0.008	0.44 ± 0.014	0.268 ± 0.025
